Laboratory results from paper PMC8648852, “Pyrazoline derivatives as promising novel antischistosomal agents” (Scientific Reports, 2021).

How the values were obtained:
[1] = test system: S. mansoni adult worm; experiment: In vitro antischistosomal assay (viability of ex vivo adult worms); type: cell-based, Schistosoma mansoni; settings: for EC50: 72 h, ex vivo adult schistosomes, brackets = 95% confidence interval; for Death of all worms within 24 h: 25 μM; for Time until all parasites were dead: 50 μM; for Antiparasitic activity in initial screen: 50 µM, after 72 h, adult worms
Method: For biological screening, S. mansoni adult parasites were isolated from the mouse infection model (parasite ex vivo) and all compounds were initially screened at 50 µM. The gold-standard antiparasitic compound praziquantel was used as a positive control and DMSO at 0.5% v/v (representing the highest concentration of solvent) served as a negative control. […] For the remaining compounds tested, no EC50 values could be calculated due to lack of activity at 50 μM. […] In tandem, our findings confirm that pyrazolines have a potent antiparasitic activity. Indeed, few compounds in the literature are active at low concentrations for review see[11],[19]. According to criteria established by the World Health Organization (WHO) for antiparasitic hits, leads, and drug candidates, at the start of a screening campaign a compound should inhibit mobility of helminths in vitro at 10 μg/mL[20], commonly ranging from 30 to 40 μM. Thus, the anthelminthic activity of pyrazolines surpasses criteria established by the WHO.
(§1) Adult schistosomes (BH strain) were isolated from infected mice and cultured in RPMI medium + 10% fetal calf serum and 100 U/mL penicillin and 100 μg/mL streptomycin in a 24-well culture plate (Corning, New York, NY, USA) containing one pair of parasites per well at 37 °C and 5% CO2 (Panasonic Healthcare, Sakata, Oizumi-machi, Japan)[38],[39]. For antischistosomal assay, compounds were dissolved in DMSO (final concentration of 0.5% v/v). Each drug concentration was tested at least in triplicate, and the experiments were repeated three times. The initial concentration of the pyrazolines and praziquantel was 50 μM and 3 μM, respectively, which was serially diluted in medium with twofold dilutions to give six concentrations[40],[41]. The negative control worms were assayed in RPMI 1640 medium and RPMI 1640 with 0.5% DMSO. Parasites were monitored daily at 24, 48 and 72 h under a stereomicroscope (Leica Microsystems EZ4E, Wetzlar, Germany) and an inverted microscope (BEL Engineering INV 100, Monza, MB, Italy). Egg production was evaluated daily as previously described. Parasite viability was averaged and 50% effective concentrations (EC50) were calculated using GraphPad Prism software[24],[43].

[2] = Cytotoxicity assay (MTT), Vero cells; type: cell-based, African green monkey; settings: African green monkey, Vero cells (African green monkey kidney cells); Vero cells, 72 h, MTT; brackets = 95% confidence interval
Method: (§2) The selectivity index (SI) of a compound is a widely accepted parameter used to express a drug’s in vitro efficacy. Therefore, the cytotoxic effect of these six pyrazolines (16, 18, 19, 21, 22 and 23) was evaluated using a monkey cell line (Vero) and a human cell line (SH-SY5Y). Cells were incubated with each compound at a range of concentrations for determination of cytotoxic concentrations 50% (CC50). […] With the EC50 data collected for schistosomes as well as the CC50 for animal and human cells, the selectivity indices (SI) were determined for each of the pyrazolines tested (Table 1). […] A SI value ≥ 10 is in accordance with the criteria defined by the WHO for antiparasitic hits, leads, and drug candidates. […] Comparatively, the SI values achieved with pyrazolines exceeded those obtained for other relevant heterocyclic compounds with antischistosomal properties[21],[22]. Although the SI values recorded for pyrazolines were more than 10 times below those for the reference drug praziquantel, a SI value ≥ 10 fulfills and exceeds the criteria established by the WHO for potential compounds as anthelmintic agents. The cytotoxicity of compounds was tested against Vero cells (African green monkey kidney cells obtained from the American Type Culture Collection, ATCC; Manassas, VA, USA) and SH-SY5Y cells (human neuroblastoma obtained from Banco de Células do Rio de Janeiro, BCRJ, RJ, Brazil). Cells was cultured in DMEM medium supplemented with 10% fetal calf serum, penicillin (100 U/mL) and streptomycin (100 µg/mL) and 2 mM of L-glutamine at 37 °C and in a 5% CO2 humidified incubator (Panasonic). The DMEM contained 1 or 4 mg/mL glucose for Vero and SH-SY5Y cells, respectively. Cytotoxicity assay was performed as previously described[25],[26]. Briefly, cells were seeded in 96-well plates (Corning) in DMEM medium and incubated with twofold serial drug starting at 200 μM following a 24 h adhesion period at 37 °C in 5% CO2. After 72 h, MTT was added and incubation was continued for another 3 h. The plate was then read using spectrophotometer (Epoch Microplate Spectrophotometer, BioTek Instruments, Winooski, VT, USA) at 595 nm. The assay was conducted in duplicate and repeated three times. Values were expressed as percentage of the control and 50% cytotoxic concentration (CC50) values were calculated. The selectivity indices (SI) of tested compounds were calculated by dividing CC50 values obtained on mammalian cells with EC50 values determined on S. mansoni.

[3] = test system: Vero cells; experiment: Cytotoxicity assay (MTT), Vero cells; type: cell-based, African green monkey; settings: CC50 (Vero) divided by EC50 (S. mansoni)
Method: as §2

[4] = test system: paired adult schistosomes (S. mansoni); experiment: Egg production (fecundity) of paired adult schistosomes in vitro; type: cell-based, Schistosoma mansoni; settings: sublethal concentrations (6.25 μM for 16, 12.5 μM for 19 and 23), compared to control
Method: Based on antischistosomal properties of pyrazolines 16, 18, 19, 21, 22 and 23, the ability of these six compounds to affect fecundity (egg production) was subsequently measured. […] To further investigate this effect on schistosome fecundity, parasites were tested using sublethal concentrations (3.5 μM for compound 22, 6.25 μM for compound 16, and 12.5 μM for compounds 18, 19, 21, and 23).
as §1

[5] = test system: SH-SY5Y cells; experiment: Cytotoxicity assay (MTT), SH-SY5Y cells; type: cell-based, human; settings: CC50 (SH-SY5Y) divided by EC50 (S. mansoni)
Method: as §2

[6] = Cytotoxicity assay (MTT), SH-SY5Y cells; type: cell-based, human; settings: human, SH-SY5Y cells (human neuroblastoma); SH-SY5Y cells, 72 h, MTT
Method: as §2

EC50 ([1]; Schistosoma mansoni)	melting point	SMILES	CC50 at 72 h [2]	CC50 at 72 h [6]	also measured
< 20 µM	–	CCCCCCCCCOc1ccc(C2CC(c3ccccc3)=NN2C(N)=O)cc1 (stereo not drawn) [Compound 16, 4,5-dihydro-5-(4-(nonyloxy)phenyl)-3-phenylpyrazole-1-carboxamide]	155 µM	> 200 µM	Monkey cells SI (selectivity index) [3]: 11.2; Reduction in the number of eggs [4]: 30–70%; Death of all worms within 24 h [1]: death of all worms; Time until all parasites were dead [1]: ≤ 24 h; Antiparasitic activity in initial screen [1]: showed antiparasitic activity; EC50 [1]: 13.8 µM; Human cells SI (selectivity index) [5]: > 14.5
> 50 µM	94.8 to 97.9 °C	CCCCCCCCCCCCOc1ccc(C2CC(c3ccccc3)=NN2C(N)=O)cc1 (stereo not drawn) [Compound 17, 5-(4-(dodecyloxy)phenyl)-4,5-dihydro-3-phenylpyrazole-1-carboxamide]	–	–	–
< 20 µM	–	CCCCCCCCCCOc1ccc(C2CC(c3ccc(F)cc3)=NN2C(N)=O)cc1 (stereo not drawn) [Compound 18, 5-(4-(decyloxy)phenyl)-3-(4-fluorophenyl)-4,5-dihydropyrazole-1-carboxamide]	159 µM	> 200 µM	Monkey cells SI (selectivity index) [3]: 10.9; Time until all parasites were dead [1]: ≤ 24 h; Antiparasitic activity in initial screen [1]: showed antiparasitic activity; EC50 [1]: 14.6 µM; Human cells SI (selectivity index) [5]: > 13.7
< 20 µM	–	Cc1ccc(C2CC(c3ccc(F)cc3)=NN2C(N)=O)cc1 (stereo not drawn) [Compound 19, 3-(4-fluorophenyl)-4,5-dihydro-5-p-tolylpyrazole-1-carboxamide]	169 µM	> 200 µM	Monkey cells SI (selectivity index) [3]: 9.7; Reduction in the number of eggs [4]: 30–70%; Time until all parasites were dead [1]: ≤ 24 h; Antiparasitic activity in initial screen [1]: showed antiparasitic activity; EC50 [1]: 17.4 µM; Human cells SI (selectivity index) [5]: > 11.5
> 50 µM	176 to 178 °C	NC(=O)N1N=C(c2ccc(F)cc2)CC1c1ccc(Br)cc1 (stereo not drawn) [Compound 20, 5-(4-bromophenyl)-3-(4-fluorophenyl)-4,5-dihydropyrazole-1-carboxamide]	–	–	–
< 20 µM	–	CN(C)c1ccc(C2CC(c3ccc(F)cc3)=NN2C(N)=O)cc1 (stereo not drawn) [Compound 21, 5-(4-(dimethylamino)phenyl)-3-(4-fluorophenyl)-4,5-dihydropyrazole-1-carboxamide]	> 200 µM	> 200 µM	Monkey cells SI (selectivity index) [3]: > 10.1; Time until all parasites were dead [1]: 48 h; Antiparasitic activity in initial screen [1]: showed antiparasitic activity; EC50 [1]: 19.8 µM; Human cells SI (selectivity index) [5]: > 10.1
< 10 µM	–	NC(=O)N1N=C(c2ccc(F)cc2)CC1c1ccc(Cl)cc1 (stereo not drawn) [Compound 22, 5-(4-chlorophenyl)-3-(4-fluorophenyl)-4,5-dihydropyrazole-1-carboxamide]	134 µM	> 200 µM	Monkey cells SI (selectivity index) [3]: 21.6; Death of all worms within 24 h [1]: death of all worms; Time until all parasites were dead [1]: ≤ 24 h; Antiparasitic activity in initial screen [1]: showed antiparasitic activity; EC50 [1]: 6.2 µM; Human cells SI (selectivity index) [5]: > 32.2
> 50 µM	90.4 to 92.1 °C	CCCCCCCCOc1ccc(C2CC(c3ccccc3)=NN2C(N)=S)cc1 (stereo not drawn) [Compound 24, 4,5-dihydro-5-(4-(octyloxy)phenyl)-3-phenylpyrazole-1-carbothioamide]	–	–	–
> 50 µM	86.4 to 88.2 °C	CCCCCCCCCOc1ccc(C2CC(c3ccccc3)=NN2C(N)=S)cc1 (stereo not drawn) [Compound 25, 4,5-dihydro-5-(4-(nonyloxy)phenyl)-3-phenylpyrazole-1-carbothioamide]	–	–	–
> 50 µM	96.2 to 98.9 °C	CCCCCCCCCCOc1ccc(C2CC(c3ccccc3)=NN2C(N)=S)cc1 (stereo not drawn) [Compound 26, 5-(4-(decyloxy)phenyl)-4,5-dihydro-3-phenylpyrazole-1-carbothioamide]	–	–	–
> 50 µM	94.2 °C	CCCCCCCCCCCCOc1ccc(C2CC(c3ccccc3)=NN2C(N)=S)cc1 (stereo not drawn) [Compound 27, 5-(4-(dodecyloxy)phenyl)-4,5-dihydro-3-phenylpyrazole-1-carbothioamide]	–	–	–
> 50 µM	97 to 99.2 °C	CCCCCCCCCCCCCCOc1ccc(C2CC(c3ccccc3)=NN2C(N)=S)cc1 (stereo not drawn) [Compound 28, 4,5-dihydro-3-phenyl-5-(4-(tetradecyloxy)phenyl)pyrazole-1-carbothioamide]	–	–	–
> 50 µM	113 to 114 °C	CCCCCCCCCOc1ccc(C2CC(c3ccc(F)cc3)=NN2C(N)=S)cc1 (stereo not drawn) [Compound 29, 3-(4-fluorophenyl)-4,5-dihydro-5-(4-(nonyloxy)phenyl)pyrazole-1-carbothioamide]	–	–	–
> 50 µM	105.5 to 108.4 °C	CCCCCCCCCCOc1ccc(C2CC(c3ccc(F)cc3)=NN2C(N)=S)cc1 (stereo not drawn) [Compound 30, 3-(4-fluorophenyl)-4,5-dihydro-5-(4-(decyloxy)phenyl)pyrazole-1-carbothioamide]	–	–	–
> 50 µM	92.2 to 94.6 °C	CCCCCCCCCCCCCCOc1ccc(C2CC(c3ccc(F)cc3)=NN2C(N)=S)cc1 (stereo not drawn) [Compound 31, 3-(4-fluorophenyl)-4,5-dihydro-5-(4-(tetradecyloxy)phenyl)pyrazole-1-carbothioamide]	–	–	–
> 50 µM	–	Cc1ccc(-c2cc(-c3ccc(F)cc3)[nH]n2)cc1 [Compound 32, 5-(4-fluorophenyl)-3-(4-methylphenyl)-1H-pyrazole]	–	–	–
> 50 µM	217 to 219 °C	Fc1ccc(-c2cc(-c3ccc(Br)cc3)n[nH]2)cc1 [Compound 33, 3-(4-bromophenyl)-5-(4-fluorophenyl)-1H-pyrazole]	–	–	–
> 50 µM	–	Fc1ccc(-c2cc(-c3ccc(Cl)cc3)n[nH]2)cc1 [Compound 34, 3-(4-chlorophenyl)-5-(4-fluorophenyl)-1H-pyrazole]	–	–	–
0.93 µM	–	O=C(C1CCCCC1)N1CC(=O)N2CCc3ccccc3C2C1 (stereo not drawn) [PZQ, praziquantel, reference compound]	> 200 µM	> 200 µM	–

SMILES	EC50 ([1]; Schistosoma mansoni)	melting point	CC50 at 72 h [2]	CC50 at 72 h [6]	also measured
CCCCOc1ccc(C2CC(c3ccccc3)=NN2C(N)=O)cc1 (stereo not drawn) [Compound 15, 5-(4-butoxyphenyl)-4,5-dihydro-3-phenylpyrazole-1-carboxamide]	> 50 µM	–	–	–	–
